This is an account of results in patent publication US20230165970A1, “COMPOSITIONS AND METHODS FOR THE TREATMENT OF BACTERIAL INFECTIONS” (priority 2017, published 2023).

Values after ≈ are worked out from the molar mass of the structure shown. Read-outs that look alike come from different tables or passages of the source. *1 amine or outer side, *2 acyl side, *3 side chain or, on linkers, in order; H or OH if unused. Where a SMILES comes first, the peptide text is derived from it. Bridges are numbered along the chain shown (N, C = ends). [ ]: non-standard residue; d: D form. The star is where a group is joined. Propargyl(OCH2CH2)4CO = C#CCOCCOCCOCCOCCC(=O)*; X1 = CCCCCC[C@@H](O)[C@H](N[*:1])C(=O)[*:2]; dCha = N[C@H](CC1CCCCC1)C(=O)O; hLeu = CC(C)CC[C@H](N)C(=O)O; X7 = NCCN(NC(=O)[*:2])[*:1]; Dab = NCC[C@H](N)C(=O)O; azaGly = NNC(=O)O Some results are limits rather than exact numbers.

For one experiment, the system named is A. baumannii AB5075. It counts as cell-based. As for the experimental part:
(§1) Overnight stationary-phase cultures were centrifuged at 3,500×g for 10 min at room temperature and resuspended in 1×PBS to an optical density at 600 nm (OD600) of 0.4 (1×10^8 colony forming units [CFU]/ml) in RPMI with L-glutamine and phenol red (Life Technologies). Bacteria were diluted 1:25 in RPMI ([…]) and 10 ul added to wells of a non-binding 96-well plate (Corning 3641) containing 80 ul of 50% hirudin anti-coagulated blood (complement active) in RPMI. […] MBC was defined as the minimum conjugate concentration required for bacterial clearance (Table 8A and Table 8B). An untreated growth control (40% blood, 0 ug/ml conjugate) was included in all assays as a growth comparator.
(§2) MBC was defined as the minimum compound concentration required for complete bacterial clearance (Table 18).
(§3) In most cases, 2-4 fold improvements in antibacterial activity for the conjugates are observed in the presence of complement active human blood.

The next experiment has as its system E. coli ATCC 25922. It counts as cell-based. The method, then:
as §1, §2, §3

For a further experiment, the system named is P. aeruginosa PAO1. It counts as cell-based. As for the experimental part:
as §1, §2, §3

The subject of another experiment is Ec 2469. The format is cell-based, Escherichia coli. The method, then:
(§4) Briefly, stock solutions of all antibacterial agents were prepared fresh in appropriate solvents (i.e. PBS, pH 7.4, DMSO, DI, etc.). Stock concentrations for drug conjugates were made at 12.5× the highest final assay concentration. All were serially diluted 2-fold, 8 or 12 times in a 96-well PCR plate (VWR cat. no. 83007-374). Bacterial cell suspensions generated from Mueller-Hinton agar (MHA) plate cultures were prepared in 0.85% saline and adjusted to ˜0.1 OD600 nm. […] For the conjugates, 92 μL of each cell suspension in RPMI B were added in the same 96-well plate assay format. […] Compounds were tested against a 14-strain panel comprised of E. coli (Ec), A. baumannii (Ab), P. aeruginosa (Pa), and K. pneumoniae (Kp) that were obtained from ATCC (Ec 25922, Ec 2489, Ab 19606, Pa 27853, Pa PAO1, Kp 43816, Kp 10031), Centers for Disease Control and Prevention (Ec AR0349), BEI Resources (Ab AB5075), Micromyx LLC (Ab 8990, Kp 6951), and Belgian Coordinated Collections of Microorganisms (Pa LES431) or generated in-house (Ec 25922 64X-1). […] E. coli strain ATCC 25922 and P. aeruginosa strain LES431 were run in the presence and absence of 50% heat-inactivated fetal bovine serum (FBS; Sigma, cat. no. F4135-100 mL). Plates were mixed by shaking then incubated at 35° C. overnight (16-20 h).

A further experiment concerns Ec 25922. It counts as cell-based, Escherichia coli. As for the experimental part:
as §4

The subject of a further experiment is Ec 25922 64X-1 (COL^R). It counts as cell-based, Escherichia coli. As to conditions: media CA-MHB. The method, then: (§5) Briefly, stock solutions of all antibacterial agents were prepared fresh in appropriate solvents (i.e. PBS, pH 7.4, DMSO, DI, etc.). Stock concentrations for drug conjugates were made at 12.5× the highest final assay concentration. All were serially diluted 2-fold, 8 or 12 times in a 96-well PCR plate (VWR cat. no. 83007-374). Bacterial cell suspensions generated from Mueller-Hinton agar (MHA) plate cultures were prepared in 0.85% saline and adjusted to ˜0.1 OD600 nm. Next, cell suspensions were diluted 1:200 in RPMI containing 5% Luria Broth (LB) to improve bacterial growth (BD Difco, cat. no. 244620) to a concentration of ˜5×10^5 CFU (colony-forming units)/mL. Due to poor solubility in Mueller-Hinton broth media, drug conjugates were evaluated in RPMI 1640 medium (+) L-glutamine, (+) sodium bicarbonate, pH 7.4 (“RPMI B”; Gibco, cat. no. 11875-085) as has been described as a more physiologically-relevant media for susceptibility testing of antibacterial compounds (1). For the conjugates, 92 μL of each cell suspension in RPMI B were added in the same 96-well plate assay format. […] Compounds were tested against a 14-strain panel comprised of E. coli (Ec), A. baumannii (Ab), P. aeruginosa (Pa), and K. pneumoniae (Kp) that were obtained from ATCC (Ec 25922, Ec 2489, Ab 19606, Pa 27853, Pa PAO1, Kp 43816, Kp 10031), Centers for Disease Control and Prevention (Ec AR0349), BEI Resources (Ab AB5075), Micromyx LLC (Ab 8990, Kp 6951), and Belgian Coordinated Collections of Microorganisms (Pa LES431) or generated in-house (Ec 25922 64X-1). […] E. coli strain ATCC 25922 and P. aeruginosa strain LES431 were run in the presence and absence of 50% heat-inactivated fetal bovine serum (FBS; Sigma, cat. no. F4135-100 mL). Plates were mixed by shaking then incubated at 35° C. overnight (16-20 h).

The next experiment deals with Ec AR0349 (mcr-1, COL^R). The format is cell-based, Escherichia coli. The conditions noted are these: media CA-MHB. As for the experimental part:
as §5

Another experiment relates to Ab 19606 (COLhet^R). The format is cell-based, Acinetobacter baumannii. The conditions noted are these: media CA-MHB. The method, then: as §5
In experiment [1] the test system is Ab AB58705 (COL^R) IpxD, mut. (no LPS). It counts as cell-based, Acinetobacter baumannii. As to conditions: media CA-MHB.
For the next experiment, the system named is Ab 8990 (COL^R). The format is cell-based, Acinetobacter baumannii. The conditions noted are these: Ab 8990 (COL^R); media CA-MHB. As for the experimental part: as §4
The next experiment concerns Ab AB5075. It counts as cell-based, Acinetobacter baumannii. As for the experimental part:
as §4

A further experiment has as its system Pa 27853. The format is cell-based, Pseudomonas aeruginosa. The method, then:
as §4

The next experiment relates to Pa LES431. The format is cell-based, Pseudomonas aeruginosa. As for the experimental part: as §4
The next experiment has as its system Pa PAO1. The format is cell-based, Pseudomonas aeruginosa. The conditions noted are these: for MIC: PAO1. The method, then:
as §4

The next experiment relates to Kp 10031. It counts as cell-based, Klebsiella pneumoniae. The method, then: as §4
A further experiment has as its system Kp 43816. The format is cell-based, Klebsiella pneumoniae. As for the experimental part: as §4
The next experiment concerns Kp 6951 (COL^R). It counts as cell-based, Klebsiella pneumoniae. As for the experimental part:
as §4

Another experiment relates to Sa RN. The format is cell-based.
In a further experiment the test system is LPS from E. coli O111:B4. The experiment can be described thus: LPS binding/neutralization by Limulus Amebocyte Lysate (LAL) assay. The format is biochemical. The conditions noted are these: LPS 1-10,000 ng/mL, test article 0.25-10 μM; sum of AUCs relative to maximal AUC (Table 15). As for the experimental part:
The LAL assay (Charles River) was used to determine the binding affinity of test articles to LPS.
For the assay, 25 μL purified LPS from E. coli O111:[…] (Sigma) at doses ranging from 1-10,000 ng/mL were incubated with 25 μL of test article at concentrations ranging from […]. After 5 min incubation at 37° C., 50 μL of LAL reagent, which reacts with lipid A portion from LPS, was added to corresponding wells. After 15 min, absorbance at 405 nm was read on EnSpire plate reader (Perkin Elmer). The % LPS neutralization is calculated relative to a PBS control (background) and LPS control at each concentration (positive control).
LPS neutralization=(1−(absorbance test article−PBS with LAL reagent)/(absorbance no test article−PBS with LAL reagent))×100
To obtain a single value of LPS neutralization for each test article, the area under the curve (AUC) for dose-response of test articles from […] for each LPS concentration was calculated using Prism 7 software. The % LPS neutralization is the sum of the AUCs for each LPS concentration determined relative to the maximal AUC achievable×100.
For the assay, 25 μL purified LPS from E. coli O111:B4 (Sigma) at doses ranging from 1-10,000 ng/mL were incubated with 25 μL of test article at concentrations ranging from 0.25-10 μM. After 5 min incubation at 37° C., 50 μL of LAL reagent, which reacts with lipid A portion from LPS, was added to corresponding wells. After 15 min, absorbance at 405 nm was read on EnSpire plate reader (Perkin Elmer). The % LPS neutralization is calculated relative to a PBS control (background) and LPS control at each concentration (positive control).

One may read the MIC as the smallest concentration in the dilution series that meets the test's criterion for growth inhibition. On to `C#CCOCCOCCOCCOCCC(=O)N[C@@H](CCN)C(=O)N[C@H](C(=O)NNC(=O)N[C@H]1CCNC(=O)[C@H]([C@@H](C)O)NC(=O)[C@H](CCN)NC(=O)[C@H](CCN)NC(=O)[C@H](CC(C)C)NC(=O)[C@@H](CC2CCCCC2)NC(=O)[C@H](CCN)NC1=O)[C@H](O)CCCCCC` [Int-115] ({Propargyl(OCH2CH2)4CO}-[Dab][X1][azaGly][Dab][Dab][dCha]L[Dab][Dab]T; lactam 4-C), for which, in the experiment with A. baumannii AB5075, the “MBC in blood AB 5075” value worked out at 0.05 µg/mL (≈ 0.0373 µM). Besides, the “MBC in blood EC 25922” value in the experiment on E. coli ATCC 25922 was found to be 0.05 µg/mL (≈ 0.0373 µM). For the same compound, in the experiment with P. aeruginosa PAO1, the “MBC in blood PA 01” value was more than 0.2 µg/mL. Further, the MIC in the experiment with Ec 2469 came out at 2 µg/mL (≈ 1.49 µM); in the experiment on Ec 25922 it was 2 µg/mL (≈ 1.49 µM); against Ec 25922 64X-1 (COL^R) it was 64 µg/mL (≈ 47.8 µM); against Ec AR0349 (mcr-1, COL^R), 16 µg/mL (≈ 11.9 µM); in the experiment on Ab 19606 (COLhet^R) it was 4 µg/mL (≈ 2.99 µM); in experiment [1] it was 64 µg/mL (≈ 47.8 µM). The MIC in the experiment on Ab 8990 (COL^R) is more than 128 µg/mL; in the experiment with Ab AB5075 it was 2 µg/mL (≈ 1.49 µM); against Pa 27853, 4 µg/mL (≈ 2.99 µM); against Pa LES431, 4 µg/mL (≈ 2.99 µM); against Pa PAO1, 8 µg/mL (≈ 5.97 µM); against Kp 10031, 2 µg/mL (≈ 1.49 µM). Further, the minimum inhibitory concentration (MIC) is 2 µg/mL (≈ 1.49 µM) in the experiment on Kp 43816, 128 µg/mL (≈ 95.5 µM) against Kp 6951 (COL^R) and more than 128 µg/mL against Sa RN. The “MIC in RPMI EC 25922” value with Ec 25922 (pH 7.4) was determined as 2.23 µg/mL (≈ 1.66 µM). Besides, the “MIC in RPMI AB 5075” value in the experiment on Ab AB5075 (pH 7.4) is 1.11 µg/mL (≈ 0.829 µM). The “MIC in RPMI PA 01” value in the experiment with Pa PAO1 (PAO1, pH 7.4) was found to be 8.91 µg/mL (≈ 6.65 µM).

Regarding `C#CCOCCOCCOCCOCCC(=O)N[C@@H](CCC(C)C)C(=O)N[C@@H](CCN)C(=O)N[C@H](C(=O)N(CCN)NC(=O)N[C@H]1CCNC(=O)[C@H]([C@@H](C)O)NC(=O)[C@H](CCN)NC(=O)[C@H](CCN)NC(=O)[C@H](CC(C)C)NC(=O)[C@@H](Cc2ccccc2)NC(=O)[C@H](CCN)NC1=O)[C@@H](C)O` [Int-126] ({Propargyl(OCH2CH2)4CO}-[hLeu][Dab]T[X7][Dab][Dab][dF]L[Dab][Dab]T; lactam 5-C), the MIC is 0.5 µg/mL (≈ 0.349 µM) in the experiment on Ec 2469; 1 µg/mL (≈ 0.697 µM) against Ec 25922; 64 µg/mL (≈ 44.6 µM) against Ec 25922 64X-1 (COL^R); 8 µg/mL (≈ 5.58 µM) in the experiment with Ec AR0349 (mcr-1, COL^R); 4 µg/mL (≈ 2.79 µM) with Ab 19606 (COLhet^R); 64 µg/mL (≈ 44.6 µM) in experiment [1]. Further, the MIC in the experiment on Ab 8990 (COL^R) was more than 128 µg/mL; against Ab AB5075 it was 2 µg/mL (≈ 1.39 µM); with Pa 27853, 2 µg/mL (≈ 1.39 µM); in the experiment on Pa LES431, 4 µg/mL (≈ 2.79 µM); in the experiment on Pa PAO1, 2 µg/mL (≈ 1.39 µM); in the experiment on Kp 10031, 1 µg/mL (≈ 0.697 µM). The MIC with Kp 43816 was 1 µg/mL (≈ 0.697 µM); in the experiment with Kp 6951 (COL^R) (Kp 6951 (COL^R), media CA-MHB) it was more than 128 µg/mL; against Sa RN, more than 128 µg/mL. Also, the “% LPS neutralization” value with LPS from E. coli O111:B4 is reported as 19.7%.
